Reference: patent US20250059205A1, “Heterocyclic Compounds and Methods of Use” (AMGEN INC., priority 2021, published 2025)
pIC50: −log10 of the molar value.

Legend:
[1] = target: His-tagged KRAS G12D protein (Homo sapiens, UniProt P01116, G12D); assay: KRAS G12D TR-FRET Assay; assay type: binding
[2] = target: GDP-bound KRAS protein (aa 1-169), containing both G12D and C118A amino acid substitutions (Homo sapiens, UniProt P01116, C118A/G12D); assay: KRAS G12D Coupled Nucleotide Exchange Assay; assay type: biochemical; conditions: 2 h compound pre-incubation
GDP-bound KRAS protein (aa 1-169), containing both G12D and C118A amino acid substitutions, sequence (P01116 1-169 isoform P01116-2 G12D/C118A): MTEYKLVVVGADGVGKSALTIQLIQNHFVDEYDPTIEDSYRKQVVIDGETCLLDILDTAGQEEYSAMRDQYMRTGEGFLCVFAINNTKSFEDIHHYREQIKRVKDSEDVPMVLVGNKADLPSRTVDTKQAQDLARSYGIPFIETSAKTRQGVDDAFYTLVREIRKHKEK
Description: Following compound pre-incubation, purified SOS protein (aa 564-1049) and GTP (Roche 10106399001) were added to the assay wells and incubated for an additional 30 min. […] The assay plates were then read on a PerkinElmer EnVision Multilabel Reader, using AlphaScreen® technology, and data were analyzed using a 4-parameter logistic model to calculate IC50 values.

[3] = tested on: Phosphorylation of ERK1/2 in A-427 cells; assay: Phospho-ERK1/2 MSD Assay (A-427 cells); assay type: cell-based; conditions: Homo sapiens, A-427, 2 h, 2 h treatment, read-out: p-ERK (A427 cells) IC50
Summary of the method: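 ERK1/2 phosphorylation measured by Meso Scale whole-cell lysate assay after A-427 cells were exposed to a titration of compound for 2 h at 37 °C.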

[4] = tested on: Phosphorylation of ERK1/2 in AsPC-1 cells; assay: Phospho-ERK1/2 MSD Assay (AsPC-1 cells); assay type: cell-based; conditions: Homo sapiens, ASPC1, 2 h, 2 hours treatment, read-out: p-ERK (AsPC-1 cells) IC50
Summary of the method: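 Read-out: MSD electrochemiluminescent detection of phosphorylated ERK1/2 in whole-cell lysates, fitted to a 4-parameter logistic curve for IC50. Prior to lysis, AsPC-1 cells (25,000 per well) received a 2 h compound dose-response at 37 °C.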

His-tagged KRAS G12D protein, sequence (P01116 1-188 isoform P01116-2 G12D): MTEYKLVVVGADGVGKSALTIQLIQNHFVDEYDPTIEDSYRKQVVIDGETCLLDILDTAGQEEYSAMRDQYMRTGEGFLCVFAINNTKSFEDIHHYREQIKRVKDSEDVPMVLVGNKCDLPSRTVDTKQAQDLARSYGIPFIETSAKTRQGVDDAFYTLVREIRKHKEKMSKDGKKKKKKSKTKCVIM

## CCc1c(F)ccc2cc(O)cc(-c3c(F)cc4c(N5C[C@H]6CC[C@@H](C5)N6)nc(OC[C@@]56CCCN5C[C@H](F)C6)nc4c3F)c12 [Example 88, 4-(4-((1R,5S)-3,8-diazabicyclo[3.2. 1]octan-3-yl)-6,8-difluoro-2-(((2R,7aS)-2-fluorotetrahydro-1H-pyrrolizin-7a(5H)-yl)methoxy)quinazolin-7-yl)-5-ethyl-6-fluoronaphthalen-2-ol]
[1]
  pIC50: 8.40
[2]
  Avg 2 h Coupled Exchange IC50: 4 nM
[3]
  pIC50: 8.52
[4]
  pIC50: 8.05

## Nc1ccc(C2CC2)c(-c2c(F)cc3c(N4C[C@@H]5CC[C@H]4CN5)nc(OC[C@@]45CCCN4C[C@H](F)C5)nc3c2F)c1 [Example 115, 3-(4-((1S,4S)-2,5-diazabicyclo[2.2.2]octan-2-yl)-6,8-difluoro-2-(((2R,7aS)-2-fluorotetrahydro-1H-pyrrolizin-7a(5H)-yl)methoxy)quinazolin-7-yl)-4-cyclopropylaniline]
[1]
  pIC50: 7.49
[2]
  Avg 2 h Coupled Exchange IC50: 23 nM
[3]
  pIC50: 5.56
[4]
  pIC50: 5.55

## Oc1cc(-c2c(F)cc3c(N4C[C@H]5CC[C@@H](C4)N5)nc(OC[C@@]45CCCN4C[C@H](F)C5)nc3c2F)c2c(F)cccc2c1 [Example 159, 4-(4-((1R,5S)-3,8-diazabicyclo[3.2.1]octan-3-yl)-6,8-difluoro-2-(((2R,7aS)-2-fluorotetrahydro-1H-pyrrolizin-7a(5H)-yl)methoxy)quinazolin-7-yl)-5-fluoronaphthalen-2-ol]
[1]
  pIC50: 8.52
[2]
  Avg 2 h Coupled Exchange IC50: 5 nM
[3]
  pIC50: 7.89
[4]
  pIC50: 7.11

## CCc1c(F)ccc2cc(O)cc(-c3c(F)cc4c(N5C[C@H]6CC[C@@H](C5)N6)nc(OCC(C)(C)O)nc4c3F)c12 [Example 65, 4-(4-((1R,5S)-3,8-diazabicyclo[3.2. 1]octan-3-yl)-6,8-difluoro-2-(2-hydroxy-2-methylpropoxy)quinazolin-7-yl)-5-ethyl-6-fluoronaphthalen-2-ol]
[1]
  pIC50: 8.15
[2]
  Avg 2 h Coupled Exchange IC50: 8 nM
[3]
  pIC50: 6.16
[4]
  pIC50: 6.26

## O=c1cc(-c2ccc3c(N4C[C@H]5CC[C@@H](C4)N5)nc(OC[C@@]45CCCN4C[C@H](F)C5)nc3c2F)c2ccccc2[nH]1 [Example 222, 4-(4-((1R,5S)-3,8-diazabicyclo[3.2.1]octan-3-yl)-8-fluoro-2-(((2R,7aS)-2-fluorotetrahydro-1H-pyrrolizin-7a(5H)-yl)methoxy)quinazolin-7-yl)quinolin-2-ol]
[1]
  pIC50: 6.59
[2]
  Avg 2 h Coupled Exchange IC50: 74 nM
[3]
  pIC50: < 5.00
[4]
  pIC50: < 5.00

## Cc1c(Cl)cc2cn[nH]c2c1-c1ccc2c(N3C[C@H]4CC[C@@H](C3)N4)nc(OC[C@@]34CCCN3C[C@H](F)C4)nc2c1F [Example 165, 4-((1R,5S)-3,8-diazabicyclo[3.2.1]octan-3-yl)-7-(5-chloro-6-methyl-1H-indazol-7-yl)-8-fluoro-2-(((2R,7aS)-2-fluorotetrahydro-1H-pyrrolizin-7a(5H)-yl)methoxy) quinazoline]
[1]
  pIC50: 7.57
[2]
  Avg 2 h Coupled Exchange IC50: 11 nM
[3]
  pIC50: 5.35
[4]
  pIC50: 5.48

## Oc1cc(-c2ccc3c(N4[C@@H]5CC[C@H]4CNC5)nc(OC[C@@]45CCCN4C[C@H](F)C5)nc3c2F)c2ccccc2c1 [Example 1, 4-(4-((1R,5S)-3,8-Diazabicyclo[3.2.1]octan-8-yl)-8-fluoro-2-(((2R,7aS)-2-fluorotetrahydro-1H-pyrrolizin-7a(5H)-yl)methoxy)quinazolin-7-yl)naphthalen-2-ol]
[1]
  pIC50: 8.40
[2]
  Avg 2 h Coupled Exchange IC50: 3 nM
[3]
  pIC50: 6.77
[4]
  pIC50: 6.38

## CCc1c(F)ccc2cc(O)cc(-c3c(F)cc4c(N5C6CCC5C(=O)NC6)nc(OC[C@@]56CCCN5C[C@H](F)C6)nc4c3F)c12 (single isomer, unassigned) [Example 175]
[1]
  pIC50: 8.22
[2]
  Avg 2 h Coupled Exchange IC50: 4 nM
[3]
  pIC50: 6.35
[4]
  pIC50: 5.81

## Oc1cc(-c2ccc3c(N4C[C@H]5CC[C@@H](C4)N5)nc(OC[C@@]45CCCN4C[C@H](F)C5)nc3c2F)c2c(F)cccc2c1 [Example 141, 4-(4-((1R,5S)-3,8-diazabicyclo[3.2.1]octan-3-yl)-8-fluoro-2-(((2R,7aS)-2-fluorotetrahydro-1H-pyrrolizin-7a(5H)-yl)methoxy)quinazolin-7-yl)-5-fluoronaphthalen-2-ol]
[1]
  pIC50: 8.70
[2]
  Avg 2 h Coupled Exchange IC50: 1 nM
[3]
  pIC50: 8.00
[4]
  pIC50: 7.03

## Fc1c(-c2cc(Cl)cc3ccccc23)c(Cl)cc2c(N3C[C@H]4CC[C@@H](C3)N4)nc(OC[C@@]34CCCN3C[C@H](F)C4)nc12 [Example 78, 4-((1R,5S)-3,8-diazabicyclo[3.2. 1]octan-3-yl)-6-chloro-7-(3-chloronaphthalen-1-yl)-8-fluoro-2-(((2R,7aS)-2-fluorotetrahydro-1H-pyrrolizin-7a(5H)-yl)methoxy) quinazoline]
[1]
  pIC50: 6.65
[2]
  Avg 2 h Coupled Exchange IC50: 90 nM
[3]
  pIC50: < 5.00
[4]
  pIC50: 5.22

## CCc1c(F)ccc2cc(O)cc(-c3c(F)cc4c(N5C[C@@H]6CC[C@H]5CN6)nc(OC[C@@H]5C[C@@H](F)CN5C)nc4c3F)c12 [Example 94, 4-(4-((1S,4S)-2,5-diazabicyclo[2.2. 2]octan-2-yl)-6,8-difluoro-2-(((2S,4R)-4-fluoro-1-methylpyrrolidin-2-yl)methoxy)quinazolin-7-yl)-5-ethyl-6-fluoronaphthalen-2-ol]
[1]
  pIC50: 8.30
[2]
  Avg 2 h Coupled Exchange IC50: 4 nM
[3]
  pIC50: 6.96
[4]
  pIC50: 6.82

## Oc1cc(-c2c(Cl)cc3c(N4C[C@H]5CC[C@@H](C4)N5)nc(OC[C@@]45CCCN4C[C@H](F)C5)nc3c2F)c2c(F)cccc2c1 [Example 137, 4-(4-((1R,5S)-3,8-diazabicyclo[3.2.1]octan-3-yl)-6-chloro-8-fluoro-2-(((2R,7aS)-2-fluorotetrahydro-1H-pyrrolizin-7a(5H)-yl)methoxy)quinazolin-7-yl)-5-fluoronaphthalen-2-ol]
[1]
  pIC50: 7.43
[2]
  Avg 2 h Coupled Exchange IC50: 34 nM
[3]
  pIC50: 6.39
[4]
  pIC50: 5.77

## Oc1cc(Cl)c(C2CC2)c(-c2c(F)cc3c(N4C[C@H]5CC[C@@H](C4)N5)nc(OC[C@@]45CCCN4C[C@H](F)C5)nc3c2F)c1 [Example 144, 3-(4-((1R,5S)-3,8-diazabicyclo[3.2.1]octan-3-yl)-6,8-difluoro-2-(((2R,7aS)-2-fluorotetrahydro-1H-pyrrolizin-7a(5H)-yl)methoxy)quinazolin-7-yl)-5-chloro-4-cyclopropylphenol]
[1]
  pIC50: 8.52
[2]
  Avg 2 h Coupled Exchange IC50: 3 nM
[3]
  pIC50: 7.64
[4]
  pIC50: 7.39

## CCc1c(F)ccc2cc(O)cc(-c3c(F)cc4c(N5C[C@H]6CC[C@@H](C5)N6)nc(OC[C@H]5CCC(=O)N5)nc4c3F)c12 [Example 127, (5R)-5-(((4-((1R,5S)-3,8-diazabicyclo[3.2.1]octan-3-yl)-7-(8-ethyl-7-fluoro-3-hydroxynaphthalen-1-yl)-6,8-difluoroquinazolin-2-yl)oxy)methyl) pyrrolidin-2-one]
[1]
  pIC50: 7.92
[2]
  Avg 2 h Coupled Exchange IC50: 3 nM
[3]
  pIC50: 5.48
[4]
  pIC50: 5.12

## Cc1ccc2[nH]nc(C)c2c1-c1c(Cl)cc2c(N3C[C@H]4CC[C@@H](C3)N4)nc(OC[C@@]34CCCN3C[C@H](F)C4)nc2c1F [Example 207, 4-((1R,5S)-3,8-Diazabicyclo[3.2.1]octan-3-yl)-6-chloro-7-(3,5-dimethyl-1H-indazol-4-yl)-8-fluoro-2-(((2R,7aS)-2-fluorotetrahydro-1H-pyrrolizin-7a(5H)-yl)methoxy)quinazoline]
[1]
  pIC50: 8.15
[2]
  Avg 2 h Coupled Exchange IC50: 7 nM
[3]
  pIC50: 6.69
[4]
  pIC50: 6.46

## CCc1c(F)ccc2cc(O)cc(-c3ccc4c(N5C[C@H]6COC[C@@H](C5)N6)nc(OC[C@@]56CCCN5C[C@H](F)C6)nc4c3F)c12 [Example 138, 4-(4-((1R,5S)-3-oxa-7,9-diazabicyclo[3.3.1]nonan-7-yl)-8-fluoro-2-(((2R,7aS)-2-fluorotetrahydro-1H-pyrrolizin-7a(5H)-yl)methoxy)quinazolin-7-yl)-5-ethyl-6-fluoronaphthalen-2-ol]
[1]
  pIC50: 8.52
[2]
  Avg 2 h Coupled Exchange IC50: 4 nM
[3]
  pIC50: 7.14
[4]
  pIC50: 6.67

## CN1CCC[C@H]1CCOc1nc(N2C[C@H]3C[C@@H](C2)N3)c2cc(F)c(-c3cc(O)cc4ccccc34)c(F)c2n1 [Example 21, 4-(4-((1R,5S)-3,6-diazabicyclo[3.1. 1]heptan-3-yl)-6,8-difluoro-2-(2-((S)-1-methylpyrrolidin-2-yl)ethoxy)quinazolin-7-yl)naphthalen-2-ol]
[1]
  pIC50: 6.50
[2]
  Avg 2 h Coupled Exchange IC50: 78 nM
[3]
  pIC50: 4.74
[4]
  pIC50: 5.04

## Oc1cc(-c2c(F)cc3c(N4[C@@H]5CC[C@H]4CNC5)nc(OC[C@@]45CCCN4C[C@H](F)C5)nc3c2F)c2c(F)c(F)ccc2c1 [Example 148, 4-(4-((1R,5S)-3,8-diazabicyclo[3.2.1]octan-8-yl)-6,8-difluoro-2-(((2R,7aS)-2-fluorotetrahydro-1H-pyrrolizin-7a(5H)-yl)methoxy)quinazolin-7-yl)-5,6-difluoronaphthalen-2-ol]
[1]
  pIC50: 8.70
[2]
  Avg 2 h Coupled Exchange IC50: 2 nM
[3]
  pIC50: 7.08
[4]
  pIC50: 6.84
